Data as given in patent US11072635B2, “Macrocyclic broad spectrum antibiotics” (priority 2015, dated 2021).
Converted amounts (≈) assume the structure as drawn. Like-named read-outs stand apart in the source and are kept apart here.

Key:
[1] = system: Methicillin Resistant Staphylococcus aureus strain USA 300, NRS384 (S. aureus); test: Minimum inhibitory concentration, broth micro-dilution (CLSI); type: cell-based
Method: (§1) In vitro antimicrobial activity of each compound was determined by measuring minimal inhibitor concentrations (MICs) using the broth micro-dilution technique as approved by the Clinical and Laboratory Standards Institute (CLSI) (Methods for Dilution Antimicrobial Susceptibility Tests for Bacteria that Grow Aerobically; Approved Standard—Eighth Edition. CLSI document M07-A8. Wayne, Pa.: Clinical and Laboratory Standards; 2009). Antibacterial activity was measure against three strains of bacteria: a Methicillin Resistant Staphylococcus aureus strain USA 300, NRS384 (S. aureus); a strain of Escherichia coli MC4100 harboring the IMP4213 (E. coli IMP), which results in increased outer-membrane permeability (B Martin and Silhavy T. Imp/OstA is required for cell envelope biogenesis in Escherichia coli. (2002) Molecular Microbiology, 45(5), 1289-1302), and Escherichia coli ATCC 25922 (E. coli), a clinically relevant Gram-negative strain. Cells were inoculated onto plates of Trypyticase Soy Agar or Luria Agar respectively and grown at 35° C. for 20 hours. Inocula suspensions were prepared by scraping cells into 1 mL of testing media (cation adjusted Mueller Hinton Broth supplemented with 0.002% v/v Tween-80) and diluting to a final OD600 nm of 0.01.
(§2) Test compounds were prepared in DMSO at a concentration of 10 mg/mL. […] In protocol 2, the compound stocks were diluted into testing media at a concentration of 4 μg/mL and serial 2-fold dilutions were made in the same media, in 96-well U bottom microtiter dishes, for a total of 10 compound concentrations. In protocol 3, compound stocks were diluted into testing media at a concentration of 0.5 μg/mL, with serial 2-fold dilutions conducted as described above. […] Inocula suspensions were added to the 2-fold serial dilutions of test compounds to a final density of OD OD600 nm of 0.0005 and incubated at 35° C. for 22 hours.

[2] = biological target: T1, SpsB (Staphylococcus aureus signal peptidase) (Staphylococcus aureus, UniProt P0A070); test: Whole-cell SpsB biochemical screening assay (kinetic fluorogenic enzyme activity)
T1 construct: a suspension of Staphylococcus aureus cells as a source of SpsB instead of recombinant SpsB protein; endogenous in cells; host or cells: S. aureus, USA300 background, overexpressing SpsB (whole-cell suspension)
T1 sequence (P0A070 whole entry): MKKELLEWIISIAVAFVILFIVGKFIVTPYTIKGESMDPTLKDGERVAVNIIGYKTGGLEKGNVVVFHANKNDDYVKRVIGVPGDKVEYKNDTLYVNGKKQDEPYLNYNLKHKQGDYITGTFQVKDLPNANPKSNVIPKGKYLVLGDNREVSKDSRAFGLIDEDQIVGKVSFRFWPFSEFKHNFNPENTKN
Method: A kinetic fluorogenic enzyme activity assay was used to assess inhibition of SpsB (Staphylococcus aureus signal peptidase) activity and IC50s were determined. This assay uses a suspension of Staphylococcus aureus cells as a source of SpsB instead of recombinant SpsB protein.
Cell preparation: Luria broth (LB) was inoculated with S. aureus (USA300 background, overexpressing SpsB) and shaken at 37° C. until an OD600 nm of 1.5-2.0 was reached (˜4 hr). The culture was then diluted to an OD600 nm of 1.0 with LB, aliquoted and centrifuged at 10,000×g for 2 mins. The supernatant was removed and the pellet was resuspended in phosphate buffer (1×PBS, 12.5 mg/L MgCl2, 25 mg/L CaCl2, 0.1% Tween-80) to an OD600 nm of 0.5, then centrifuged again at 10,000×g for 2 mins. The supernatant was removed and the pellets were frozen at −20° C.
Test compounds were prepared in DMSO at a concentration of 10 mg/mL. These compound stocks were diluted into DMSO to a concentration of 25 μg/mL and serial 3-fold dilutions were made in DMSO, for a total of 11 compound concentrations. 20 nL of each compound solution was pre-spotted into a white 384-well plate (50 μL/well polypropylene, Nunc) using acoustic fluid transfer (Echo).
Frozen S. aureus pellets were resuspended in assay buffer (1×PBS, 12.5 mg/L MgCl2, 25 mg/L CaCl2, 0.1% Tween-80) to an OD600 nm of 0.05, then mixed 1:1 (v/v) with 20 μM substrate ((Dabcyl)βAla-KPAKAAE(Edans)) in assay buffer, and this solution was added (20 μL/well) to the 384-well plate that had been pre-spotted with compound. Fluorescence intensity was then immediately read kinetically for 30 minutes with 2 minute read intervals to monitor cleavage of the internally quenched peptide substrate (excitation wavelength=340 nm, emission wavelength=490 nm, Molecular Devices Spectramax M5). Reaction rate (slope) was plotted against inhibitor concentration to derive the IC50.

[3] = system: Escherichia coli ATCC 25922 (E. coli); test: Minimum inhibitory concentration, broth micro-dilution (CLSI); type: cell-based; conditions: read-out: MIC (μg/mL) E. coli
Method: Cells were inoculated onto plates of Trypyticase Soy Agar or Luria Agar respectively and grown at 35° C. for 20 hours. Inocula suspensions were prepared by scraping cells into 1 mL of testing media (cation adjusted Mueller Hinton Broth supplemented with 0.002% v/v Tween-80) and diluting to a final OD600 nm of 0.01.
as §2

[4] = system: Escherichia coli MC4100 harboring the IMP4213 (E. coli IMP); test: microbe, parasite or virus in culture; type: cell-based; conditions: 22 h, read-out: MIC (μg/mL) E. coli IMP
Method: as §1, §2

[5] = MRSA / NRS 384 / USA300, MRSA USA 300, NRS384, 35° C., 22 hours, cation adjusted Mueller Hinton Broth with 0.002% Tween-80, read-out: MIC (μg/mL) S. aureus
[6] = ATCC25922, E. coli ATCC 25922, 35° C., 22 hours
[7] = MRSA / NRS 384 / USA300, 22 h, read-out: MIC (μg/mL) S. aureus

SMILES | MIC [1, 5] [µg/mL] | IC50 [2] [nM] | MIC [3, 6] [µg/mL] | MIC [4] [µg/mL] | MIC [1, 7] [µg/mL] | MIC ([3]; ATCC25922, 22 h) [µg/mL]
CCCCc1ccc(-c2ccc(C(=O)N[C@@H](CCCCN)C(=O)N(C)[C@@H]3C(=O)N[C@@H](C)C(=O)N[C@H](C(=O)Nc4ccncc4C#N)Cc4ccc(OCCN)c(c4)-c4cc3ccc4OCCN)cc2)cc1 [Compound 121] | 4 (≈ 4.14 µM) | 12 | 8 (≈ 8.29 µM) | 0.25 (≈ 0.259 µM) | – | –
CCCCc1ccc(-c2ccc(C(=O)N[C@@H](CN)C(=O)N(C)[C@@H]3C(=O)N[C@@H](C)C(=O)N[C@H](c4nnn[nH]4)Cc4ccc(OCCN)c(c4)-c4cc3ccc4OCCN)cc2)cc1 [Compound 123] | 1.5 (≈ 1.77 µM) | 15 | 8 (≈ 9.46 µM) | < 0.063 | – | –
CCCCc1ccc(-c2ccc(C(=O)N[C@@H](CN)C(=O)N(C)[C@@H]3C(=O)N[C@@H](C)C(=O)N[C@H](C#N)Cc4ccc(OCCN)c(c4)-c4cc3ccc4OCCN)cc2)cc1 [Compound 124] | 1 (≈ 1.25 µM) | 14 | 8 (≈ 9.96 µM) | 0.5 (≈ 0.623 µM) | – | –
CCCCc1ccc(-c2ccc(C(=O)N[C@@H](CN)C(=O)N(C)[C@@H]3C(=O)N[C@@H](C)C(=O)N[C@H](c4noc(=O)[nH]4)Cc4ccc(OCCN)c(c4)-c4cc3ccc4OCCN)cc2)cc1 [Compound 125] | 0.38 (≈ 0.441 µM) | 1 | 0.5 (≈ 0.58 µM) | 0.036 (≈ 0.0418 µM) | – | –
CCCCc1ccc(-c2ccc(C(=O)N[C@@H](CN)C(=O)N(C)[C@@H]3C(=O)N[C@@H](C)C(=O)N[C@H](c4n[nH]c(=O)[nH]4)Cc4ccc(OCCN)c(c4)-c4cc3ccc4OCCN)cc2)cc1 [Compound 126] | 4 (≈ 4.65 µM) | 6.2 | 1 (≈ 1.16 µM) | 0.031 (≈ 0.036 µM) | – | –
CCCCc1ccc(-c2ccc(C(=O)N[C@@H](CN)C(=O)N(C)[C@@H]3C(=O)N[C@@H](C)C(=O)N[C@H](CC#N)Cc4ccc(OCCN)c(c4)-c4cc3ccc4OCCN)cc2)cc1 [Compound 127] | 2 (≈ 2.45 µM) | 2.7 | 32 (≈ 39.2 µM) | 2 (≈ 2.45 µM) | – | –
CCCCc1ccc(-c2ccc(C(=O)N[C@@H](CCCN)C(=O)N(C)[C@@H]3C(=O)N[C@@H](C)C(=O)N[C@H](C(=O)NS(N)(=O)=O)Cc4ccc(OCCN)c(c4)-c4cc3ccc4OCCN)cc2)cc1 [Compound 128] | – | 1.5 | – | 0.012 (≈ 0.0129 µM) | 1.5 (≈ 1.62 µM) | 0.75 (≈ 0.808 µM)
C#CCNC(=O)[C@@H]1Cc2ccc(OCCN)c(c2)-c2cc(ccc2OCCN)[C@H](N(C)C(=O)[C@H](CCCN)NC(=O)c2ccc(-c3ccc(CCCC)cc3)cc2)C(=O)N[C@@H](C)C(=O)N1 [Compound 129] | – | 2.2 | – | 0.094 (≈ 0.106 µM) | 0.5 (≈ 0.564 µM) | 4 (≈ 4.51 µM)
CCCCCCCCc1ccc(C(=O)N[C@@H](CCN)C(=O)N(C)[C@@H]2C(=O)N[C@@H](C)C(=O)N[C@H](c3noc(=O)[nH]3)Cc3ccc(OCCN)c(c3)-c3cc2ccc3OCCN)c(C)c1 [Compound 131] | 0.094 (≈ 0.108 µM) | 2.1 | 0.5 (≈ 0.575 µM) | 0.0078 (≈ 0.00896 µM) | – | –
CCCCCCCCc1ccc(C(=O)N[C@@H](CCN)C(=O)N(C)[C@@H]2C(=O)N[C@@H](C)C(=O)N[C@H](c3noc(=S)[nH]3)Cc3ccc(OCCN)c(c3)-c3cc2ccc3OCCN)c(C)c1 [Compound 133] | 1 (≈ 1.13 µM) | 2.3 | 8 (≈ 9.03 µM) | 0.094 (≈ 0.106 µM) | – | –
CCCCc1ccc(-c2ccc(C(=O)N[C@@H](CCCN)C(=O)N(C)[C@@H]3C(=O)N[C@@H](C)C(=O)N[C@H](C(=O)NC#N)Cc4ccc(OCCN)c(c4)-c4cc3ccc4OCCN)cc2)cc1 [Compound 134] | 1 (≈ 1.14 µM) | 7.1 | 4 (≈ 4.58 µM) | 0.13 (≈ 0.149 µM) | – | –
CCCCc1ccc(-c2ccc(C(=O)N[C@@H](CCCN)C(=O)N(C)[C@@H]3C(=O)N[C@@H](C)C(=O)N[C@H](C(=O)NO)Cc4ccc(OCCN)c(c4)-c4cc3ccc4OCCN)cc2)cc1 [Compound 136] | – | 1.2 | – | 0.13 (≈ 0.15 µM) | 0.38 (≈ 0.439 µM) | 2 (≈ 2.31 µM)
CCCCc1ccc(-c2ccc(C(=O)N[C@@H](CCCN)C(=O)N(C)[C@@H]3C(=O)N[C@@H](C)C(=O)N[C@H](C(=O)NN)Cc4ccc(OCCN)c(c4)-c4cc3ccc4OCCN)cc2)cc1 [Compound 137] | – | 1.4 | – | 0.094 (≈ 0.109 µM) | 0.5 (≈ 0.579 µM) | 3 (≈ 3.47 µM)
CCCCc1ccc(-c2ccc(C(=O)N[C@@H](CCCN)C(=O)N(C)[C@@H]3C(=O)N[C@@H](C)C(=O)N[C@H](c4ncc(C#N)[nH]4)Cc4ccc(OCCN)c(c4)-c4cc3ccc4OCCN)cc2)cc1 [Compound 139] | 1 (≈ 1.11 µM) | 110 | 24 (≈ 26.8 µM) | 1.5 (≈ 1.67 µM) | – | –
CCCCc1ccc(-c2ccc(C(=O)N[C@@H](CCCN)C(=O)N(C)[C@@H]3C(=O)N[C@@H](C)C(=O)N[C@H](c4ncc(C(F)(F)F)[nH]4)Cc4ccc(OCCN)c(c4)-c4cc3ccc4OCCN)cc2)cc1 [Compound 140] | 4 (≈ 4.25 µM) | 370 | 32 (≈ 34 µM) | 1 (≈ 1.06 µM) | – | –
CCCCCCCCCCCCCC(=O)N[C@@H](CCN)C(=O)N(C)[C@@H]1C(=O)N[C@@H](C)C(=O)N[C@H](c2noc(=O)[nH]2)Cc2ccc(OCCN)c(c2)-c2cc1ccc2OCCN [Compound 143] | 0.13 (≈ 0.153 µM) | 1.5 | 0.5 (≈ 0.588 µM) | 0.023 (≈ 0.0271 µM) | – | –
